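Results reflect a 48-hour exposure of cells in 96-well plates to compound at five concentrations. TGI denotes the concentration required for complete inhibition of growth.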
What was measured:
Assay in all cases: growth of human tumour cells (NCI), 48 h
CAKI-1 renal = test system: CAKI-1 renal
SW-620 colon = test system: SW-620 colon
786-0 renal = test system: 786-0 renal
K-562 leukemia = test system: K-562 leukemia
MDA-MB-231 breast = test system: MDA-MB-231 breast
DU-145 prostate = test system: DU-145 prostate
NCI-H23 lung = test system: NCI-H23 lung
HT29 colon = test system: HT29 colon
NCI-H460 lung = test system: NCI-H460 lung
UACC-62 melanoma = test system: UACC-62 melanoma
UACC-257 melanoma = test system: UACC-257 melanoma
OVCAR-4 ovarian = test system: OVCAR-4 ovarian
SK-OV-3 ovarian = test system: SK-OV-3 ovarian
A549 NSCLC = test system: A549 NSCLC
SF-539 CNS = test system: SF-539 CNS
TK-10 renal = test system: TK-10 renal
SR leukemia = test system: SR leukemia
IGROV1 ovarian = test system: IGROV1 ovarian
SNB-19 CNS = test system: SNB-19 CNS
OVCAR-8 ovarian = test system: OVCAR-8 ovarian
NCI-H226 lung = test system: NCI-H226 lung
RXF 393 renal = test system: RXF 393 renal
UO-31 renal = test system: UO-31 renal
U251 CNS = test system: U251 CNS
NCI-H522 lung = test system: NCI-H522 lung
EKVX NSCLC = test system: EKVX NSCLC
MOLT-4 leukemia = test system: MOLT-4 leukemia
BT-549 breast = test system: BT-549 breast
MALME-3M melanoma = test system: MALME-3M melanoma
COLO 205 colon = test system: COLO 205 colon
ACHN renal = test system: ACHN renal
RPMI-8226 leukemia = test system: RPMI-8226 leukemia
MCF7 breast = test system: MCF7 breast
SF-295 CNS = test system: SF-295 CNS
SF-268 CNS = test system: SF-268 CNS
CCRF-CEM leukemia = test system: CCRF-CEM leukemia
A498 renal = test system: A498 renal
PC-3 prostate = test system: PC-3 prostate
HOP-92 NSCLC = test system: HOP-92 NSCLC
HL-60(TB) leukemia = test system: HL-60(TB) leukemia
KM12 colon = test system: KM12 colon
MDA-N = test system: MDA-N
SK-MEL-5 melanoma = test system: SK-MEL-5 melanoma
MDA-MB-435 = test system: MDA-MB-435
M14 melanoma = test system: M14 melanoma
HS 578T breast = test system: HS 578T breast
OVCAR-5 ovarian = test system: OVCAR-5 ovarian
NCI/ADR-RES ovarian = test system: NCI/ADR-RES ovarian
T-47D breast = test system: T-47D breast
SNB-75 CNS = test system: SNB-75 CNS
SK-MEL-28 melanoma = test system: SK-MEL-28 melanoma
SN12C renal = test system: SN12C renal
HCT-116 colon = test system: HCT-116 colon
SK-MEL-2 melanoma = test system: SK-MEL-2 melanoma
HCT-15 colon = test system: HCT-15 colon
HCC-2998 colon = test system: HCC-2998 colon
OVCAR-3 ovarian = test system: OVCAR-3 ovarian
HOP-62 NSCLC = test system: HOP-62 NSCLC

Nc1ncn2c(n1)nc1ccccc12
TGI (CAKI-1 renal): > 100 µM | TGI (SW-620 colon): > 100 µM | TGI (786-0 renal): > 100 µM | TGI (K-562 leukemia): > 100 µM | TGI (MDA-MB-231 breast): > 100 µM | TGI (DU-145 prostate): > 100 µM | TGI (NCI-H23 lung): > 100 µM | TGI (HT29 colon): > 100 µM | TGI (NCI-H460 lung): > 100 µM | TGI (UACC-62 melanoma): > 100 µM | TGI (UACC-257 melanoma): > 100 µM | TGI (OVCAR-4 ovarian): > 100 µM | TGI (SK-OV-3 ovarian): > 100 µM | TGI (A549 NSCLC): > 100 µM | TGI (SF-539 CNS): > 100 µM | TGI (TK-10 renal): > 100 µM | TGI (SR leukemia): > 100 µM | TGI (IGROV1 ovarian): > 100 µM | TGI (SNB-19 CNS): > 100 µM | TGI (OVCAR-8 ovarian): > 100 µM | TGI (NCI-H226 lung): > 100 µM | TGI (RXF 393 renal): > 100 µM | TGI (UO-31 renal): > 100 µM | TGI (U251 CNS): > 100 µM | TGI (NCI-H522 lung): > 100 µM | TGI (EKVX NSCLC): > 100 µM | TGI (MOLT-4 leukemia): > 100 µM | TGI (BT-549 breast): > 100 µM | TGI (MALME-3M melanoma): > 100 µM | TGI (COLO 205 colon): > 100 µM | TGI (ACHN renal): > 100 µM | TGI (RPMI-8226 leukemia): > 100 µM | TGI (MCF7 breast): > 100 µM | TGI (SF-295 CNS): > 100 µM | TGI (SF-268 CNS): > 100 µM | TGI (CCRF-CEM leukemia): > 100 µM | TGI (A498 renal): > 100 µM | TGI (PC-3 prostate): > 100 µM | TGI (HOP-92 NSCLC): > 100 µM | TGI (HL-60(TB) leukemia): > 100 µM | TGI (KM12 colon): > 100 µM | TGI (MDA-N): > 100 µM | TGI (SK-MEL-5 melanoma): > 100 µM | TGI (MDA-MB-435): > 100 µM | TGI (M14 melanoma): > 100 µM | TGI (HS 578T breast): > 100 µM | TGI (OVCAR-5 ovarian): > 100 µM | TGI (NCI/ADR-RES ovarian): > 100 µM | TGI (T-47D breast): > 100 µM | TGI (SNB-75 CNS): 78.9 µM | TGI (SK-MEL-28 melanoma): > 100 µM | TGI (SN12C renal): > 100 µM | TGI (HCT-116 colon): > 100 µM | TGI (SK-MEL-2 melanoma): > 100 µM | TGI (HCT-15 colon): > 100 µM

COC(=O)c1c(O)ccc2[nH]c3c(O)c4ccccc4cc3c12
TGI (CAKI-1 renal): 45.9 µM | TGI (786-0 renal): 95.6 µM | TGI (K-562 leukemia): > 100 µM | TGI (MDA-MB-231 breast): > 100 µM | TGI (DU-145 prostate): 71 µM | TGI (NCI-H23 lung): 64.3 µM | TGI (HT29 colon): > 100 µM | TGI (NCI-H460 lung): 63.5 µM | TGI (UACC-62 melanoma): > 100 µM | TGI (UACC-257 melanoma): 94.5 µM | TGI (OVCAR-4 ovarian): 78.4 µM | TGI (SK-OV-3 ovarian): 90 µM | TGI (A549 NSCLC): > 100 µM | TGI (HCC-2998 colon): 32.8 µM | TGI (SF-539 CNS): 60.3 µM | TGI (TK-10 renal): > 100 µM | TGI (SR leukemia): > 100 µM | TGI (IGROV1 ovarian): 43.5 µM | TGI (SNB-19 CNS): > 100 µM | TGI (OVCAR-8 ovarian): 48.9 µM | TGI (NCI-H226 lung): > 100 µM | TGI (RXF 393 renal): > 100 µM | TGI (UO-31 renal): 84.9 µM | TGI (U251 CNS): > 100 µM | TGI (NCI-H522 lung): 53.6 µM | TGI (EKVX NSCLC): 39.6 µM | TGI (MOLT-4 leukemia): > 100 µM | TGI (BT-549 breast): > 100 µM | TGI (MALME-3M melanoma): 51.9 µM | TGI (COLO 205 colon): 37.3 µM | TGI (ACHN renal): 96.3 µM | TGI (RPMI-8226 leukemia): 44.7 µM | TGI (OVCAR-3 ovarian): 31.6 µM | TGI (MCF7 breast): 56.2 µM | TGI (SF-295 CNS): 38.1 µM | TGI (SF-268 CNS): 54.7 µM | TGI (CCRF-CEM leukemia): 63.1 µM | TGI (A498 renal): > 100 µM | TGI (PC-3 prostate): > 100 µM | TGI (HOP-92 NSCLC): 61.8 µM | TGI (HOP-62 NSCLC): 46.7 µM | TGI (HL-60(TB) leukemia): 37.5 µM | TGI (KM12 colon): 38.8 µM | TGI (MDA-N): 65 µM | TGI (SK-MEL-5 melanoma): > 100 µM | TGI (MDA-MB-435): 70.7 µM | TGI (M14 melanoma): 67.4 µM | TGI (HS 578T breast): 72.8 µM | TGI (OVCAR-5 ovarian): > 100 µM | TGI (NCI/ADR-RES ovarian): 78.4 µM | TGI (T-47D breast): 36.6 µM | TGI (SK-MEL-28 melanoma): 76.4 µM | TGI (SN12C renal): > 100 µM | TGI (HCT-116 colon): 47 µM | TGI (SK-MEL-2 melanoma): 55 µM | TGI (HCT-15 colon): 48.1 µM

Reference: PubChem BioAssay (NCI)
